# Reference: ChEMBL document CHEMBL1201862, “PubChem BioAssay data set” (2004)
# The source made the active and inactive calls.
# What was measured:
# [1] = target: T1, Beta-2 adrenergic receptor (Homo sapiens, UniProt P07550); assay: ADRB2 activation measured by internalization – cell-based, FAP fluorogen, flow cytometry, cherry pick 1, dose response (AID 588763); type: functional
# [2] = target: T1, Beta-2 adrenergic receptor; assay: Dose response for HTS for Beta-2AR agonists via FAP method from Powderset1.; type: functional
# P388/ADR = assay: cells; type: functional; conditions: Mus musculus
# P388 = assay: cells; type: functional; conditions: Mus musculus
# SN12K1 = assay: cells; type: functional; conditions: Homo sapiens
# [3] = target: Long-chain-fatty-acid--AMP ligase FadD28 (Mycobacterium tuberculosis, UniProt P9WQ59); assay: Fluorescence polarization aasay to screen for inhibitors that compete for the binding of FadD28 to a bisubstrate Measured in Biochemical System Using Plate Reader - 2147-01_Inhibitor_Dose_CherryPick_Activity.; type: functional, Mycobacterium tuberculosis H37Rv
# cells [4] = type: functional, cell-based
# cells [5] = type: functional, cell-based; remark: listed apart in the source
# [6] = target: T2, High affinity choline transporter 1 (Homo sapiens, UniProt Q9GZV3); assay: human choline transporter blockers, potency – cell-based, 5-point CRC, membrane potential dye, dose response (AID 504840); type: functional
# T2 sequence (Q9GZV3 whole entry): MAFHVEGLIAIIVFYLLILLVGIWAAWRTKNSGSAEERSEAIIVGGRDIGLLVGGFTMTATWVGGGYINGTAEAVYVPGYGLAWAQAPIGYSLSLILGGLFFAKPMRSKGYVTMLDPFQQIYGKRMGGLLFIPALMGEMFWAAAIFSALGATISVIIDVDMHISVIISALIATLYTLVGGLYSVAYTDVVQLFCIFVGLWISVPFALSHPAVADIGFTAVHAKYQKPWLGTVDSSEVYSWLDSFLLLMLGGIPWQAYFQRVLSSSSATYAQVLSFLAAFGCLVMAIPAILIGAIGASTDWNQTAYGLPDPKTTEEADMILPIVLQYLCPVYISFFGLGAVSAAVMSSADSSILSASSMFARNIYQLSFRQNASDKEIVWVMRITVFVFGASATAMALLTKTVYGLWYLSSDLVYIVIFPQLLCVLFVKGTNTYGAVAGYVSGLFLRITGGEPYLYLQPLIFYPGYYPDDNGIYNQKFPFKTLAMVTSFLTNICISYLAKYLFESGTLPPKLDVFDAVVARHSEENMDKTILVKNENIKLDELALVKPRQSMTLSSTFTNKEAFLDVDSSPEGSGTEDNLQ
# [7] = target: T2, High affinity choline transporter 1; assay: human choline transporter blockers, potency – cell-based, 10-point CRC, membrane potential dye, dose response (AID 588401); type: functional;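 further: membrane potential dye fluorescence of choline-evoked depolarization via CHT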
# [8] = target: Fructose-bisphosphate aldolase (Mycobacterium tuberculosis, UniProt P9WQA3); assay: Fluorescence-based biochemical high throughput dose response assay for inhibitors of the fructose-bisphosphate aldolase (FBA) of M. tuberculosis.; type: functional
# Cysteine protease ATG4B = target: T3, Cysteine protease ATG4B (Homo sapiens, UniProt Q9Y4P1); type: functional;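 further: Fluorescence-based dose-response confirmation assay measuring inhibition of ATG4B activity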
# T3 sequence (Q9Y4P1 whole entry): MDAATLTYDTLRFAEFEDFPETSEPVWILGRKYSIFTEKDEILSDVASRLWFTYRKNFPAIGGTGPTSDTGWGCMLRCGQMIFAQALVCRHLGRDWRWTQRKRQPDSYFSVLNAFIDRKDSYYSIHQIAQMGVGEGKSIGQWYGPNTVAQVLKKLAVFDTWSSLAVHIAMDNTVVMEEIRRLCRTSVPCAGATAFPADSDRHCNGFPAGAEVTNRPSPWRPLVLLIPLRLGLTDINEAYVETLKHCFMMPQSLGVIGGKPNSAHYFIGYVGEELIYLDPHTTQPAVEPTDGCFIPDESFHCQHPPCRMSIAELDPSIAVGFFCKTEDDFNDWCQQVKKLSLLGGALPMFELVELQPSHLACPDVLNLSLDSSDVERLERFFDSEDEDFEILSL
# Phospholipase A2 = Phospholipase A2 (Homo sapiens, UniProt P04054); type: functional;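 further: confirmatory dose-response counterscreen on phospholipase A2, testing hits that came from an ultra-high-throughput screen for ATG4B inhibitors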
# [9] = bead-based luminescence quenchers, dual-tagged ARNT – biochemical, AlphaScreen, cherry-pick, artefact control for ARNT-TACC3 interaction inhibitor project, dose response (AID 651705); type: functional;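 further: AlphaScreen bead proximity signal that flags compounds interfering with the detection technology; potency reflects signal decrease which marks the compound as an assay artifact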
# [10] = inhibition of ARNT PAS-B/TACC3 complex formation – biochemical, AlphaScreen, cherry-picked samples, confirmation (AID 651703); type: functional, Homo sapiens;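 further: His-tagged ARNT PAS-B domain paired with GST-TACC3 E629A dimer coactivator fragment; potency of inhibitors that break up the complex and lower AlphaScreen signal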
# [11] = target: T4, Probable nicotinate-nucleotide adenylyltransferase (Staphylococcus aureus (strain N315), UniProt P65502); type: functional, Staphylococcus aureus subsp. aureus N315;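 on IC50 Mean: confirmatory dose-response retesting of NadD inhibitor hits first found in an ultra-high-throughput screen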
# SUMO-activating enzyme = SUMO-activating enzyme (Homo sapiens, UniProt Q9UBT2); assay: blockers of UBC9-mediated SUMO conjugation – biochemical, AlphaScreen, SUMOylation inhibitor project, confirmation (AID 2018); type: functional
# [12] = target: T4, Probable nicotinate-nucleotide adenylyltransferase; type: functional, Staphylococcus aureus subsp. aureus N315; conditions: read-out: IC50_Mean
# [13] = target: Photoreceptor-specific nuclear receptor (Homo sapiens, UniProt Q9Y5X4); type: functional, cell-based;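 further: CHO-S cells with Gal4-NCOR and VP16-NR2E3 two-hybrid luciferase reporter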
# Mu-type opioid receptor = Mu-type opioid receptor (Homo sapiens, UniProt P35372); type: functional, cell-based;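 further: U2OS cells with beta-arrestin recruitment to OPRM1 by beta-gal complementation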
# [14] = target: 5-hydroxytryptamine receptor 2A (Mus musculus, UniProt P35363); type: functional, cell-based;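 further: CHO-K1 cells with tagged receptor and beta-arrestin; agonist potency measured as compound-induced activation of the receptor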
# [15] = target: Nuclear receptor subfamily 5 group A member 2 (Homo sapiens, UniProt O00482); type: functional, cell-based;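 further: HEK293T cells transfected with LRH-1 and a StAR promoter luciferase reporter; potency for inhibitors that lower LRH-1 driven reporter light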
# Steroidogenic factor 1 = Steroidogenic factor 1 (Homo sapiens, UniProt Q13285); assay: Counterscreen for inverse agonists of the liver receptor homolog-1 (LRH-1; NR5A2): Luminescence-based cell-based high throughput dose response assay to identify inverse agonists of the Steroidogenic Factor 1 Nuclear Receptor (SF1; NR5A1).; type: functional
# [16] = nonselective StAR promoter luciferase inhibitors – cell-based, luminescence, luciferase reporter, counter-screen for LRH-1 inverse agonist project, dose response (AID 651969); type: functional
# T4 sequence (P65502 whole entry): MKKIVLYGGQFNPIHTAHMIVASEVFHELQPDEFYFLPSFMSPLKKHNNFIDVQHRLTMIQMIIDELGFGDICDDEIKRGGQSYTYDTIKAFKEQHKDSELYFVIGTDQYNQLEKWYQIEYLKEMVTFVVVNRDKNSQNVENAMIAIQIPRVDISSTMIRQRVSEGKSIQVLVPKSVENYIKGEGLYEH
# T1 sequence (P07550 whole entry): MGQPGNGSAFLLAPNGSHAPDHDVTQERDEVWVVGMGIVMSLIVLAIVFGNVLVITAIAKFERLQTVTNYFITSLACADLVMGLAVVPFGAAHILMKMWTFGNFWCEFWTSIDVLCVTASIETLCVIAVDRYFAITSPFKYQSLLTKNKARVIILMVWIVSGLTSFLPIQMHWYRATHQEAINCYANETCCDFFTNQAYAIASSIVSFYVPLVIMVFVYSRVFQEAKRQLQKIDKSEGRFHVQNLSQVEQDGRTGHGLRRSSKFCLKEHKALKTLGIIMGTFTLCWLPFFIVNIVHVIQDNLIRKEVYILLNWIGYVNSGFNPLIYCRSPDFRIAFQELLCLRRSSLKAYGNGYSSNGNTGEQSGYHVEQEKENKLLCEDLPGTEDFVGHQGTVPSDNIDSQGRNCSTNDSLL
# Fructose-bisphosphate aldolase, sequence (P9WQA3 whole entry): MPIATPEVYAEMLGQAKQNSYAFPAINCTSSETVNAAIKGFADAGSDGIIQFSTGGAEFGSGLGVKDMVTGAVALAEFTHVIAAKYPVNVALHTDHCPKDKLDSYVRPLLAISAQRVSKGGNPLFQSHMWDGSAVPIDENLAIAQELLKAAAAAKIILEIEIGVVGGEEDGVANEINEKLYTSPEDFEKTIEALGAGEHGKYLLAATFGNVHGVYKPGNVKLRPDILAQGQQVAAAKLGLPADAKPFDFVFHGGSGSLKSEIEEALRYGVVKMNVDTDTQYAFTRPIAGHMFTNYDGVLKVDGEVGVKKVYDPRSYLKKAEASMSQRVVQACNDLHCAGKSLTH
# Mu-type opioid receptor, sequence (P35372 whole entry): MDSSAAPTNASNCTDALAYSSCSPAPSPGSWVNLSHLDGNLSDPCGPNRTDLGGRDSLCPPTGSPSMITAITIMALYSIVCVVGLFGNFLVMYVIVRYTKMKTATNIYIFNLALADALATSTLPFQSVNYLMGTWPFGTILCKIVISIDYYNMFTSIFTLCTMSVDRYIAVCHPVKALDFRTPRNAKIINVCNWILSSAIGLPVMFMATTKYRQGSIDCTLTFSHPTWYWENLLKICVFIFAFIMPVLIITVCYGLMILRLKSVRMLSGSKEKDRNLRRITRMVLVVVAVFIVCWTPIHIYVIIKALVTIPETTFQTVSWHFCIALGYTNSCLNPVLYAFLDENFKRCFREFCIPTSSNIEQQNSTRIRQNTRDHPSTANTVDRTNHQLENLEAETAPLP
# 5-hydroxytryptamine receptor 2A, sequence (P35363 whole entry): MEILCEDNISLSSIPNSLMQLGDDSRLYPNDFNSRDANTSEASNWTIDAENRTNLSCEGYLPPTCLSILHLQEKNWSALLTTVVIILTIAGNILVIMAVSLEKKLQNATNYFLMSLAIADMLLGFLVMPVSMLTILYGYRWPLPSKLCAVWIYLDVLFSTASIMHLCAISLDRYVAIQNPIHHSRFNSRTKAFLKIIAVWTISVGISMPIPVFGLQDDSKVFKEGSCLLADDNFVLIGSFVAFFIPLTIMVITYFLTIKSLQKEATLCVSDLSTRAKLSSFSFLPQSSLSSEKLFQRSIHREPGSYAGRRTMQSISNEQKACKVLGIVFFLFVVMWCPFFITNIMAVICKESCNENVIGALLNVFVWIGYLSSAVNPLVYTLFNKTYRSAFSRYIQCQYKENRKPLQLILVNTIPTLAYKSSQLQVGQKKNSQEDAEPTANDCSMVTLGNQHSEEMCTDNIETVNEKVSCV
# SUMO-activating enzyme, sequence (Q9UBE0 whole entry): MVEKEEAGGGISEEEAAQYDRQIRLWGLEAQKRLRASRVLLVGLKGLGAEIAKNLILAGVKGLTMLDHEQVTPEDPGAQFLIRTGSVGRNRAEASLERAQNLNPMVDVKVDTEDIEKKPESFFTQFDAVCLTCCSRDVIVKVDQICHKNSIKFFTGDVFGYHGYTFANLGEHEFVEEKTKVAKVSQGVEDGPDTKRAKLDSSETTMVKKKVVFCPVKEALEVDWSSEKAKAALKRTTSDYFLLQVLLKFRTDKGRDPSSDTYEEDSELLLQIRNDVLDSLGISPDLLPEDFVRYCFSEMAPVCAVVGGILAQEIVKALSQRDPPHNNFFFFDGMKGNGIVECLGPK
# SUMO-activating enzyme, sequence (Q9UBT2 whole entry): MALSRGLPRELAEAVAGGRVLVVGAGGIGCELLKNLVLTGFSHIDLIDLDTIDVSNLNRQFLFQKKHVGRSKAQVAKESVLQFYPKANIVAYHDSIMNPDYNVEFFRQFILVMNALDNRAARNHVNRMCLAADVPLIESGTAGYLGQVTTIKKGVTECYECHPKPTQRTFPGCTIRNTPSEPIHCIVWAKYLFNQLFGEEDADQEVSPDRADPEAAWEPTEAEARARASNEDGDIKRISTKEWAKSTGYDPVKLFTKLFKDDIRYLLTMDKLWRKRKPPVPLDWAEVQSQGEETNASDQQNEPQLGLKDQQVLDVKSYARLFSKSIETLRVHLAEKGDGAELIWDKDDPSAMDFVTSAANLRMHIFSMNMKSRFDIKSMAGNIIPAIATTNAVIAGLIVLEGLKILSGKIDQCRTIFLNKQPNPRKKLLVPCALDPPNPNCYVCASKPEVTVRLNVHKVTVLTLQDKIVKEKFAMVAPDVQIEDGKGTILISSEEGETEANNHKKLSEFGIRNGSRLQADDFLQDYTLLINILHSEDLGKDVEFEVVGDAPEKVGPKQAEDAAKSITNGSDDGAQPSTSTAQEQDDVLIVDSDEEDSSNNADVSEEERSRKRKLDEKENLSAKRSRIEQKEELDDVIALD
# Phospholipase A2, sequence (P04054 whole entry): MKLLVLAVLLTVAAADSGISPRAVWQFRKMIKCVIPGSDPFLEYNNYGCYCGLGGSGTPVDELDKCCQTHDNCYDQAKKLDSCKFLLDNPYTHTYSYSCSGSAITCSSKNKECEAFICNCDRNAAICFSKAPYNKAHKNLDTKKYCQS
# Photoreceptor-specific nuclear receptor, sequence (Q9Y5X4 whole entry, the tested form may be a part): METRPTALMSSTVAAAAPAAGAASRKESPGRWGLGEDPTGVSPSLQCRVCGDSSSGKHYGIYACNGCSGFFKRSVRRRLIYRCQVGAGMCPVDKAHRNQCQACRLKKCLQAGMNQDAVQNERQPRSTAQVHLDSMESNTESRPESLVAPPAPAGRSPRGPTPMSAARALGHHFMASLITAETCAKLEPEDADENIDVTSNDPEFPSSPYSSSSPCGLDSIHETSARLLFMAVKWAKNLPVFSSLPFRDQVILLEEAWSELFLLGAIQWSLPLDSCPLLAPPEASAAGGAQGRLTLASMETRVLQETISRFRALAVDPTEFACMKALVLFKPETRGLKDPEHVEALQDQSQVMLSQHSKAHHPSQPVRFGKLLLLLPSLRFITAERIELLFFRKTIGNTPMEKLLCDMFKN
# Long-chain-fatty-acid--AMP ligase FadD28, sequence (P9WQ59 whole entry): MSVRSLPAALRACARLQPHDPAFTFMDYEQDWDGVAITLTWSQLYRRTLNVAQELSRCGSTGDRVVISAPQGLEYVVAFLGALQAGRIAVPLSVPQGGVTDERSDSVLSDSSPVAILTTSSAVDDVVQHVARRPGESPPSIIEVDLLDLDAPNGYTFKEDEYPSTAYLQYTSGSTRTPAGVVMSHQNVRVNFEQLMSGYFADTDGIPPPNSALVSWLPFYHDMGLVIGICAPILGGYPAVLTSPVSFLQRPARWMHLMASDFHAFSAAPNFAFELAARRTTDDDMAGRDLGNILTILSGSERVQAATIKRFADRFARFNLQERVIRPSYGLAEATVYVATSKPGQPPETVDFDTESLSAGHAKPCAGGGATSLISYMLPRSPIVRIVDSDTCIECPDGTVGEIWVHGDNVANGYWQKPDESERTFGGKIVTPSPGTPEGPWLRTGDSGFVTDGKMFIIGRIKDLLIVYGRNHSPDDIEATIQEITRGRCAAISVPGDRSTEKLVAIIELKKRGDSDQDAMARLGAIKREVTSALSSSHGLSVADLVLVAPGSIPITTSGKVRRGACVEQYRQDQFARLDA
# Nuclear receptor subfamily 5 group A member 2, sequence (O00482 whole entry): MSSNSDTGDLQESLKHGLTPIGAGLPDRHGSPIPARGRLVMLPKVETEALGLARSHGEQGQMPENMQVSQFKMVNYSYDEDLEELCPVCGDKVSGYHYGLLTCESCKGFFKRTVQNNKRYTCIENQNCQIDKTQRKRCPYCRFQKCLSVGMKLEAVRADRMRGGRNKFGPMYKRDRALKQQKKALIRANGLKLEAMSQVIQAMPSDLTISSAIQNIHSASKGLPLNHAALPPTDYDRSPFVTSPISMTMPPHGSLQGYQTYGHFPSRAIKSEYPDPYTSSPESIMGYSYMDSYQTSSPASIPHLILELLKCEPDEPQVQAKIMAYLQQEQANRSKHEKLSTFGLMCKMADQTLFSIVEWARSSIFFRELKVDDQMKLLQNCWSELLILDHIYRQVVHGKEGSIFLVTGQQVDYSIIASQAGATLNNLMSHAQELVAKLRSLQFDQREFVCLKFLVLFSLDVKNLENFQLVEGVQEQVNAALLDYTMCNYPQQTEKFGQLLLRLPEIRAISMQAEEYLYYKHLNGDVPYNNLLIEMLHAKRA
# Steroidogenic factor 1, sequence (Q13285 whole entry): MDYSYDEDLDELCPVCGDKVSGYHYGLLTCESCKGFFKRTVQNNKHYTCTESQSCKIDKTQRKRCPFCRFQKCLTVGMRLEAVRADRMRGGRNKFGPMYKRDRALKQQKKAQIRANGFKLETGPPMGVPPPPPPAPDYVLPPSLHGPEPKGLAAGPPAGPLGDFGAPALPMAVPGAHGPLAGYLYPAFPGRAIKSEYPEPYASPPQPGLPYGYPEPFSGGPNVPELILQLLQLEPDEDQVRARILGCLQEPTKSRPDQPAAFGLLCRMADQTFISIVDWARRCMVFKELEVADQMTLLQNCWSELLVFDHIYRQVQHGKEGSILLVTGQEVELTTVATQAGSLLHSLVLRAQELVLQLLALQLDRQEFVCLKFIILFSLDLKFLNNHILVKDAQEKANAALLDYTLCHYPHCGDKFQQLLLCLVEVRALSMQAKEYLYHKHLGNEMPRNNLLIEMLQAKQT
compound,measurement,setting,value
COc1ccc(CN2CCC(Oc3ccc(C(=O)N4CCCC4)cc3)CC2)c(F)c1,EC50,[1],4.66 µM (active)
same,EC50,[2],5.42 µM (active)
CCCCCCCC(=O)O[C@H]1[C@H]2[C@@H](CC1(C)C)C(=O)[C@]13O[C@H]1C(=O)[C@]1(CO1)[C@]23C,GI50,P388/ADR,0.1 µM (active)
same,GI50,P388,0.0904 µM (active)
same,GI50,SN12K1,3.33 µM (inactive)
Cc1nc2ccccc2n1-c1ccccc1,AC50,[3],29.5 µM (active)
O=C(O)C1CC=C(Cl)CC1C(=O)NCC1OCCc2ccccc21 (stereo unspecified),IC50,cells [4],> 29.9 µM (inactive)
same,EC50,cells [5],> 29.9 µM (inactive)
O=[N+]([O-])c1ccc(Sc2ncc3ccccn23)nc1,IC50,[6],3.9 µM (active)
same,IC50,[7],1.13 µM (active)
O=C(NC1CCCCC1)c1ccc2[nH]c(=O)c(=O)[nH]c2c1,IC50,[8],2.36 µM (active)
NC(=O)/C(=C\c1ccccc1)NC(=O)/C=C/c1ccccc1,IC50,Cysteine protease ATG4B,19.1 µM (active)
same,IC50,Phospholipase A2,15.5 µM (active)
COc1ccccc1NC(=O)CSc1ccc2nnc(-c3cccnc3)n2n1,AC50,[9],127 µM (active)
same,AC50,[10],118 µM (active)
O=C(O)c1ccc(/C=N/NC(=O)c2ccc(CN3c4cccc5cccc(c45)S3(=O)=O)cc2)cc1,IC50,[11],5.94 µM (active)
same,IC50,SUMO-activating enzyme,10.9 µM (active)
same,IC50,[12],27.2 µM (active)
O=C(Nc1nnc(-c2cccs2)o1)c1cc(-c2ccccc2)nc2ccccc12,IC50,[11],6.58 µM (active)
same,IC50,[12],27.6 µM (active)
same,IC50,[13],3.67 µM (active)
C1=CC2CC1CC2CN1CCN(c2ccccc2)CC1 (stereo unspecified),EC50,Mu-type opioid receptor,92.5 µM (inactive)
same,EC50,[14],76.1 µM (inactive)
COc1cc(NC(=O)Cn2ccsc2=N)c(C)cc1[N+](=O)[O-],IC50,[15],35.9 µM (inactive)
same,IC50,Steroidogenic factor 1,25.3 µM (inactive)
same,IC50,[16],35.9 µM (inactive)
